Article PMC10628124, “Elevator-like movements of prestin mediate outer hair cell electromotility” (Nature Communications, 2023)

Assays:
Format in all cases: cell-based
zPres [1] = target: T1, zPres (Danio rerio, UniProt Q7T2C4, R505K, form not given); experiment: whole-cell patch clamp, oxalate-chloride counter-transport current, CHO cells; settings: 106 mM intracellular oxalate; extracellular chloride; current at 0 mV; GFP fusion
T1 construct: gene slc26a5; full length; C-terminal GFP fusion in CHO cells (pEGFP-N1); in Xenopus oocytes (pGEMHE) with functionally silent R505K; homodimer
T1 sequence (Q7T2C4 1-739 R505K): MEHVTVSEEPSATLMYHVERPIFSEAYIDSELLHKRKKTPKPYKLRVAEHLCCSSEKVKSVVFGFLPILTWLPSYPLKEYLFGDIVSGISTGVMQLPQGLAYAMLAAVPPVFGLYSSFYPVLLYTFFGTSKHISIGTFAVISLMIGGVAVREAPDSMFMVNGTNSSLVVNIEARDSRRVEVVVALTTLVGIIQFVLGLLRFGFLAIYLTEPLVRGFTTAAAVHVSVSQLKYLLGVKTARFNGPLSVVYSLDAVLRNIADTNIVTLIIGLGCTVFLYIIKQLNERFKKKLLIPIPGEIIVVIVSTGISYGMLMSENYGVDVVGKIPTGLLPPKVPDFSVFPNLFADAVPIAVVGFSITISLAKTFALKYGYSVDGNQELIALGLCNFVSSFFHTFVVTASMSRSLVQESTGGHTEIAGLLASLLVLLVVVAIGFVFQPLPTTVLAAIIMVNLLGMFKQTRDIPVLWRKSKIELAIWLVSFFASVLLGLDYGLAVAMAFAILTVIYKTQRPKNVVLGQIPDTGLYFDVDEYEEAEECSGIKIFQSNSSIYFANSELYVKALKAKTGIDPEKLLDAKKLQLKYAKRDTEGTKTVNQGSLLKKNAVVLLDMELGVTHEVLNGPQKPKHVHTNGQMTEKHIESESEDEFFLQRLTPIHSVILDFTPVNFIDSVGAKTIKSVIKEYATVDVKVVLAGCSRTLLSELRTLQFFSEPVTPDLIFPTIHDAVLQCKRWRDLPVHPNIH

zPres [2] = target: T2, zPres (Danio rerio, UniProt Q7T2C4, R505K); experiment: whole-cell patch clamp, non-linear capacitance, CHO cells; settings: 10 mM extracellular salicylate; 160 mM intracellular Cl-; pH 7.4; zPres-GFP; inhibition
T2 construct: gene slc26a5; full length; C-terminal GFP fusion in CHO cells (pEGFP-N1); in Xenopus oocytes (pGEMHE) with functionally silent R505K; homodimer
T2 sequence (Q7T2C4 1-739 R505K): T1 sequence (Q7T2C4 1-739 R505K)

rPres = target: T3, rPres (Rattus norvegicus, UniProt Q9EPH0, R150C); experiment: voltage-clamp fluorometry, Xenopus oocytes; settings: 10 mM extracellular salicylate; labelled at C150 with MTS-TAMRA; signal suppressed, V1/2 depolarized
T3 construct: gene Slc26a5; full length; C-terminal 6xHis tag in Xenopus oocytes (pGEMHE); homodimer
T3 sequence (Q9EPH0 1-744 R150C): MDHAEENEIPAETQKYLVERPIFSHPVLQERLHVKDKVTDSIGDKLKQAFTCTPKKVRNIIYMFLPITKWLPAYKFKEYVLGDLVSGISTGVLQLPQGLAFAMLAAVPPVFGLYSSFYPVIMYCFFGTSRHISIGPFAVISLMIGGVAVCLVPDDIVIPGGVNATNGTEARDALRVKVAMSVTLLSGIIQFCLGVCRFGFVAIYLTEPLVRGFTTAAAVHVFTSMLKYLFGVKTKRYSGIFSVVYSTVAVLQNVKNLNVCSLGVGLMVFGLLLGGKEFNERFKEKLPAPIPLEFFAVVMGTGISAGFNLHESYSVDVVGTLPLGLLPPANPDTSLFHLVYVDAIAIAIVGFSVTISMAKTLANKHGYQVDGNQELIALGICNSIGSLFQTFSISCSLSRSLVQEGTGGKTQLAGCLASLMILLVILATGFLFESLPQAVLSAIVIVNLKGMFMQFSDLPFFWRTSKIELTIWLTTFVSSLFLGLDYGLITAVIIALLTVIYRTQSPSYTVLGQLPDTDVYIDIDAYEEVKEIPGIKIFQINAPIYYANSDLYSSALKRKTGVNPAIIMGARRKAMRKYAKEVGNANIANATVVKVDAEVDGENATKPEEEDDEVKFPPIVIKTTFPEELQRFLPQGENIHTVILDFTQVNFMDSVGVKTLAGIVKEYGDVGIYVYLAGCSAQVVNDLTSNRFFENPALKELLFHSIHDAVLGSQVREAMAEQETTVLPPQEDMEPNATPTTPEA

Compound	whole-cell patch clamp, oxalate-chloride counter-transport current, CHO cells (zPres [1])	whole-cell patch clamp, non-linear capacitance, CHO cells (zPres [2])	voltage-clamp fluorometry, Xenopus oocytes (rPres)
O=C(O)C(=O)O [oxalate]	monitored as the electrogenic oxalate-chloride counter-transport current by whole-cell patch-clamping	–	–
O=C(O)c1ccccc1O [salicylate]	–	NLC recorded from cells expressing zPres was readily inhibited by salicylate	salicylate, suppressed the voltage-dependent fluorescence signals of rPres-R150C-TAMRA
